Test results: patent US20160009686A1, “VEGFR3 INHIBITORS” (CANCER THERAPEUTICS CRC PTY LIMITED, priority 2012, published 2016)
pIC50: −log10 of the molar value. Read-outs that look alike come from different tables or passages of the source.

Target: VEGFR3 cytoplasmic domain (Homo sapiens, UniProt P35916)
Experiment: VEGFR3 Biochemical Assay (AlphaScreen)
Details: GST-fusion enzyme, 500 μM ATP, 90 minutes at 30 degree Celsius (modified form in some cases: Hexa-His-fusion enzyme, 1 μM ATP); for pIC50: read-out: IC50

Sequence of VEGFR3 cytoplasmic domain (P35916 798-1298 isoform P35916-1): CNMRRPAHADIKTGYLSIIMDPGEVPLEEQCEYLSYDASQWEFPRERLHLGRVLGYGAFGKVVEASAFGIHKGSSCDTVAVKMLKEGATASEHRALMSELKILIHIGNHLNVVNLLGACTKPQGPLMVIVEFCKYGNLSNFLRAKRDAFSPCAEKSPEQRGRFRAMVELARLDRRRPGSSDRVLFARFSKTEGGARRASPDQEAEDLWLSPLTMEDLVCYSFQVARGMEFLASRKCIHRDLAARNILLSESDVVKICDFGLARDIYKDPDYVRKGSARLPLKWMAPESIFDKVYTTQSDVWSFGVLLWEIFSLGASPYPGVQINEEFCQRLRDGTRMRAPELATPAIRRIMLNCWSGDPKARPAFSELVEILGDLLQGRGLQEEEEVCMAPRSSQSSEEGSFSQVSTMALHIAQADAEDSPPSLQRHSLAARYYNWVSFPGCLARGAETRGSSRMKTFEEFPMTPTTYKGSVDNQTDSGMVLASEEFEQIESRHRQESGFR

SMILES	pIC50	IC50 (IC50 (nM)) [nM]
Cc1cnc(Nc2cnn(C)c2)nc1CCc1ccccc1C(C)C(N)=O (single isomer, unassigned) [Compound 51-1A, 2-(2-(2-(5-methyl-2-((1-methyl-1H-pyrazol-4-yl)amino)pyrimidin-4-yl)ethyl)phenyl)propanamide]	7.60	
Cc1cnc(Nc2cnn(C)c2)nc1CCc1ccccc1C(C)C(N)=O (single isomer, unassigned) [Compound 51-2A, 2-(2-(2-(5-methyl-2-((1-methyl-1H-pyrazol-4-yl)amino)pyrimidin-4-yl)ethyl)phenyl)propanamide]	7.39	
NC(=O)C1(c2ccccc2CCc2nc(Nc3ncco3)ncc2Cl)CC1 [Compound 11, 1-(2-(2-(5-Chloro-2-(oxazol-2-ylamino)pyrimidin-4-yl)ethyl)phenyl)cyclopropanecarboxamide]	5.89	
NC(=O)C1(c2ccccc2CCc2nc(Nc3ccnnc3)ncc2Cl)CC1 [Compound 22, 1-(2-(2-(5-Chloro-2-(pyridazin-4-ylamino)pyrimidin-4-yl)ethyl)phenyl)cyclopropanecarboxamide]	7.70	
NC(=O)C1(c2ccccc2CCc2nc(Nc3ccccc3)ncc2Cl)CC1 [Compound 23, 1-(2-(2-(5-Chloro-2-(phenylamino)pyrimidin-4-yl)ethyl)phenyl)cyclopropanecarboxamide]		11
Cc1n[nH]cc1Nc1ncc(Cl)c(CCc2ccccc2C2(C(N)=O)CC2)n1 [Compound 25, 1-(2-(2-(5-Chloro-2-((3-methyl-1H-pyrazol-4-yl)amino)pyrimidin-4-yl)ethyl)phenyl)cyclopropanecarboxamide]	8.15	
Cc1nn(C)cc1Nc1ncc(Cl)c(CCc2ccccc2C2(C(N)=O)CC2)n1 [Compound 26, 1-(2-(2-(5-Chloro-2-((1,3-dimethyl-1H-pyrazol-4-yl)amino)pyrimidin-4-yl)ethyl)phenyl)cyclopropanecarboxamide]	7.92	
Cc1cc(Nc2ncc(Cl)c(CCc3ccccc3C3(C(N)=O)CC3)n2)n[nH]1 [Compound 27, 1-(2-(2-(5-Chloro-2-((5-methyl-1H-pyrazol-3-yl)amino)pyrimidin-4-yl)ethyl)phenyl)cyclopropanecarboxamide]	7.33	
Cn1ccc(Nc2ncc(Cl)c(CCc3ccccc3C3(C(N)=O)CC3)n2)n1 [Compound 28, 1-(2-(2-(5-Chloro-2-((1-methyl-1H-pyrazol-3-yl)amino)pyrimidin-4-yl)ethyl)phenyl)cyclopropanecarboxamide]	6.57	
NC(=O)C1(c2ccccc2CCc2nc(Nc3cnn(CC(F)(F)F)c3)ncc2Cl)CC1 [Compound 29, 1-(2-(2-(5-Chloro-2-((1-(2,2,2-trifluoroethyl)-1H-pyrazol-4-yl)amino)pyrimidin-4-yl)ethyl)phenyl)cyclopropanecarboxamide]	8.10	
CC(C)n1cc(Nc2ncc(Cl)c(CCc3ccccc3C3(C(N)=O)CC3)n2)cn1 [Compound 30, 1-(2-(2-(5-Chloro-2-((1-isopropyl-1H-pyrazol-4-yl)amino)pyrimidin-4-yl)ethyl)phenyl)cyclopropanecarboxamide]	8.40	
N#Cc1ccc(Nc2ncc(Cl)c(CCc3ccccc3C3(C(N)=O)CC3)n2)cn1 [Compound 31, 1-(2-(2-(5-Chloro-2-((6-cyanopyridin-3-yl)amino)pyrimidin-4-yl)ethyl)phenyl)cyclopropanecarboxamide]	7.32	
CC(=O)c1ccc(Nc2ncc(Cl)c(CCc3ccccc3C3(C(N)=O)CC3)n2)cn1 [Compound 32, 1-(2-(2-(2-((6-Acetylpyridin-3-yl)amino)-5-chloropyrimidin-4-yl)ethyl)phenyl)cyclopropanecarboxamide]	7.36	
CC(N)c1ccc(Nc2ncc(Cl)c(CCc3ccccc3C3(C(N)=O)CC3)n2)cn1 (centres unmarked) [Compound 33, 1-(2-(2-(2-((6-(1-Aminoethyl)pyridin-3-yl)amino)-5-chloropyrimidin-4-yl)ethyl)phenyl)cyclopropanecarboxamide]	7.22	
NC(=O)C1(c2ccccc2CCc2nc(Nc3cnn(C(F)F)c3)ncc2Cl)CC1 [Compound 34, 1-(2-(2-(5-Chloro-2-((1-(difluoromethyl)-1H-pyrazol-4-yl)amino)pyrimidin-4-yl)ethyl)phenyl)cyclopropanecarboxamide]	8.15	
CC(C(N)=O)c1ccccc1CCc1nc(Nc2ccc(C3CCNCC3)nc2)ncc1Cl (centres unmarked) [Compound 37, 2-(2-(2-(5-Chloro-2-((6-(piperidin-4-yl)pyridin-3-yl)amino)pyrimidin-4-yl)ethyl)phenyl)propanamide]	7.51	
CC(C(N)=O)c1ccccc1CCc1nc(Nc2ccc(C3CCN(C)CC3)nc2)ncc1Cl (centres unmarked) [Compound 38, 2-(2-(2-(5-Chloro-2-((6-(1-methylpiperidin-4-yl)pyridin-3-yl)amino)pyrimidin-4-yl)ethyl)phenyl)propanamide]	7.49	
CC(C(N)=O)c1ccccc1CCc1nc(Nc2cccnc2)ncc1Cl (centres unmarked) [Compound 39, 2-(2-(2-(5-Chloro-2-(pyridin-3-ylamino)pyrimidin-4-yl)ethyl)phenyl) propanamide]	7.36	

SMILES	pIC50	IC50 (IC50 (nM)) [nM]
CC(C(N)=O)c1ccccc1CCc1nc(Nc2cncnc2)ncc1Cl (centres unmarked) [Compound 40, 2-(2-(2-(5-Chloro-2-(pyrimidin-5-ylamino)pyrimidin-4-yl)ethyl)phenyl) propanamide]	6.80	
Cc1ccc(Nc2ncc(Cl)c(CCc3ccccc3C(C)C(N)=O)n2)cn1 (centres unmarked) [Compound 41, 2-(2-(2-(5-chloro-2-(6-methylpyridin-3-ylamino)pyrimidin-4-yl)ethyl)phenyl) propanamide]	7.35	
CC(C(N)=O)c1ccccc1CCc1nc(Nc2ccnnc2)ncc1Cl (centres unmarked) [Compound 42, 2-(2-(2-(5-Chloro-2-(pyridazin-4-ylamino)pyrimidin-4-yl)ethyl)phenyl)propanamide]	6.81	
CC(C(N)=O)c1ccccc1CCc1nc(Nc2cnn(C3CCNCC3)c2)ncc1Cl (centres unmarked) [Compound 43, 2-(2-(2-(5-Chloro-2-(1-(piperidin-4-yl)-1H-pyrazol-4-ylamino)pyrimidin-4-yl)ethyl)phenyl) propanamide]	7.92	
Cc1cnc(Nc2cn[nH]c2)nc1CCc1ccccc1C1(C(N)=O)CC1 [Compound 46, 1-(2-(2-(2-((1H-Pyrazol-4-yl)amino)-5-methylpyrimidin-4-yl)ethyl)phenyl)cyclopropanecarboxamide]	7.89	
Cc1cnc(Nc2cnn(C)c2)nc1CCc1ccccc1C1(C(N)=O)CC1 [Compound 47, 1-(2-(2-(5-Methyl-2-((1-methyl-1H-pyrazol-4-yl)amino)pyrimidin-4-yl)ethyl)phenyl)cyclopropanecarboxamide]	8.30	
Cc1cnc(Nc2cnn(C3CCN(C)CC3)c2)nc1CCc1ccccc1C1(C(N)=O)CC1 [Compound 48, 1-(2-(2-(5-Methyl-2-((1-(1-methylpiperidin-4-yl)-1H-pyrazol-4-yl)amino)pyrimidin-4-yl)ethyl)phenyl)cyclopropanecarboxamide]	7.92	
Cc1cnc(Nc2ccc(C3CCN(C)CC3)nc2)nc1CCc1ccccc1C1(C(N)=O)CC1 [Compound 49, 1-(2-(2-(5-Methyl-2-((6-(1-methylpiperidin-4-yl)pyridin-3-yl)amino)pyrimidin-4-yl)ethyl)phenyl)cyclopropanecarboxamide]	7.64	
Cc1cnc(Nc2ccc(C(C)N)cc2)nc1CCc1ccccc1C1(C(N)=O)CC1 (centres unmarked) [Compound 50, 1-(2-(2-(2-((4-(1-Aminoethyl)phenyl)amino)-5-methylpyrimidin-4-yl)ethyl)phenyl)cyclopropanecarboxamide]	7.34	
NC(=O)C1(c2ccccc2CCc2nc(Nc3ccc(C4CCNCC4)cc3)ncc2C(F)(F)F)CCC1 [Compound 52, 1-(2-(2-(2-((4-(Piperidin-4-yl)phenyl)amino)-5-(trifluoromethyl)pyrimidin-4-yl)ethyl)phenyl)cyclobutanecarboxamide]	7.64	
NC(=O)C1(c2cccc(CCc3nc(Nc4cnn(C5CCNCC5)c4)ncc3C(F)(F)F)c2)CC1 [Compound 53, 1-(3-(2-(2-((1-(Piperidin-4-yl)-1H-pyrazol-4-yl)amino)-5-(trifluoromethyl)pyrimidin-4-yl)ethyl)phenyl)cyclopropanecarboxamide]	6.64	
CC(C(N)=O)c1ccccc1CCc1nc(Nc2cn[nH]c2)ncc1C(F)(F)F (centres unmarked) [Compound 54, 2-(2-(2-(2-((1H-Pyrazol-4-yl)amino)-5-(trifluoromethyl)pyrimidin-4-yl)ethyl)phenyl)propanamide]	7.77	
COc1ccc(Nc2ncc(C(F)(F)F)c(CCc3ccccc3C(C)C(N)=O)n2)cn1 (centres unmarked) [Compound 61, 2-(2-(2-(2-((6-Methoxypyridin-3-yl)amino)-5-(trifluoromethyl)pyrimidin-4-yl)ethyl)phenyl) propanamide]	6.93	
CC(C(N)=O)c1ccccc1CCc1nc(Nc2ccc(C3CCNCC3)nc2)ncc1C(F)(F)F (centres unmarked) [Compound 62, 2-(2-(2-(2-((6-(Piperidin-4-yl)pyridin-3-yl)amino)-5-(trifluoromethyl)pyrimidin-4-yl)ethyl)phenyl)propanamide]	6.31	
CC(C(N)=O)c1ccccc1CCc1nc(Nc2ccc(C3CCN(C)CC3)nc2)ncc1C(F)(F)F (centres unmarked) [Compound 63, 2-(2-(2-(2-((6-(1-Methylpiperidin-4-yl)pyridin-3-yl)amino)-5-(trifluoromethyl)pyrimidin-4-yl)ethyl)phenyl)propanamide]	7.55	
Cn1cc(Nc2ncc(C(F)(F)F)c(CCc3ccccc3C3(C(N)=O)CC3)n2)cn1 [Compound 65, 1-(2-(2-(2-((1-Methyl-1H-pyrazol-4-yl)amino)-5-(trifluoromethyl)pyrimidin-4-yl)ethyl)phenyl)cyclopropanecarboxamide]	8.52	
NC(=O)C1(c2ccccc2CCc2nc(Nc3cnn(C4CCNCC4)c3)ncc2C(F)(F)F)CC1 [Compound 66, 1-(2-(2-(2-((1-(Piperidin-4-yl)-1H-pyrazol-4-yl)amino)-5-(trifluoromethyl)pyrimidin-4-yl)ethyl)phenyl)cyclopropanecarboxamide]	8.15	
